{
  "source": "patent US8735377B1",
  "about": "“Methods of treating herpes zoster” (priority 2010, dated 2014)",
  "key": {"herpes zoster (shingles)": {"test_system": "herpes zoster (shingles)", "assay": "Case report: patient on sub-antibacterial doxycycline hyclate who presented with shingles", "format": "in vivo, human", "conditions": "one patient", "method": "The below Example summarizes an incidence using 20 mg doxycycline hyclate tablets administered twice a day.\nA person (hereinafter “the patient”) had been taking generic Periostat® (20 mg doxycycline hyclate b.i.d.) for over a six month period when they presented with shingles. […] By this time, the patient had blistering and vesicular lesions, and lesions consisting of deep scabs on their face (e.g., upper cheek), neck and chest. All lesions presented on patient's left side without crossing the midline.\nThe patient also reported being lethargic, weak and dizzy.\nThe medical doctor who examined the patient was very surprised to hear that the lesions were not painful. They said that the lesions were at the stage where they typically cause intense pain. The doctor predicted that, even if the lesions were not painful at the moment, they would become very painful shortly, particularly since antiviral therapy would be initiated after 72 hours of the appearance of the characteristic lesions. Accordingly, the doctor prescribed the narcotic pain reliever Percocet®.\nThe doctor also prescribed VALTREX®, an antiherpetic medication, in a dose of a 1 gram tablet, taken 3 times a day for 7 days. The doctor advised that VALTREX® should have been started within 2 or 3 days of the first appearance of a lesion in order to effectively minimize pain.\nThe patient began taking the VALTREX®, as prescribed. […]"}, "[1]": {"assay": "Plasma concentration of COL-3 in humans", "format": "in vivo", "conditions": "dose of about 10 to about 20 mg/day", "method": "An example of a COL is 6-demethyl-6-deoxy-4-de(dimethylamino)tetracycline (COL-3). COL-3 is administered in doses of up to about 200 mg/day, preferably about 150 mg/day, more preferably about 100 mg/day, or in amounts that result in plasma concentrations of up to about 50 μg/ml, about 40 μg/ml or about 30 μg/ml. For example, a dose of about 10 to about 20 mg/day of COL-3 produces plasma concentrations in humans of about 1.0 μg/ml."}},
  "data": [
    {"molecule": "doxycycline hyclate", "values": [
      {"measurement": "pain reported by the patient throughout the course of shingles", "setting": "herpes zoster (shingles); 20 mg b.i.d., no analgesic taken", "value": "did not feel any pain whatsoever"},
      {"measurement": "inhibition of the pain typically associated with lesions of shingles", "setting": "herpes zoster (shingles); 20 mg tablets twice a day, taken for over six months before onset, VALTREX started over 96 hours after first lesion, no analgesic", "value": "virtually complete inhibition"}
    ]},
    {"molecule": "NC(=O)C1=C(O)C[C@@H]2C[C@@H]3Cc4cccc(O)c4C(=O)C3=C(O)[C@]2(O)C1=O", "note": "[COL-3, 6-demethyl-6-deoxy-4-dedimethylaminotetracycline]", "values": [
      {"measurement": "plasma concentration in humans", "setting": "[1]", "value": "about 1.0 μg/ml"}
    ]}
  ]
}
